Measurements taken from ChEMBL document CHEMBL1201862, “PubChem BioAssay data set” (2004).
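Values below derive from 48-hour exposures of cells grown in 96-well plates, with endpoints linearly interpolated between the two concentrations bracketing the appropriate inhibition level. GI50 = concentration required for 50% inhibition of growth.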 The source made the active and inactive calls. Cut-off read from the data, not from the text of the source: active = GI50 up to about 1.1 µM and inactive = higher. Peptide text beside a SMILES is read from it. * marks the point of attachment. Cbz = O=C(OCc1ccccc1)*

What was measured:
Experiment in all cases: inhibition of tumour cell growth, NCI panel, 48 h
HOP-62 = system: HOP-62
NCI-H460 = system: NCI-H460
MDA-N = system: MDA-N
DU-145 = system: DU-145
MDA-MB-435 = system: MDA-MB-435
HT-29 = system: HT-29
UO-31 = system: UO-31
IGROV-1 = system: IGROV-1
NCI/ADR-RES = system: NCI/ADR-RES
SK-MEL-28 = system: SK-MEL-28
A549 = system: A549
A498 = system: A498
EKVX = system: EKVX
786-0 = system: 786-0
HCT-116 = system: HCT-116
HOP-92 = system: HOP-92
SNB-19 = system: SNB-19
NCI-H522 = system: NCI-H522
UACC-257 = system: UACC-257

Row | Compound | GI50 (HOP-62) | GI50 (NCI-H460) | GI50 (MDA-N) | GI50 (DU-145) | GI50 (MDA-MB-435) | GI50 (HT-29) | GI50 (UO-31) | GI50 (IGROV-1) | GI50 (NCI/ADR-RES) | GI50 (SK-MEL-28) | GI50 (A549) | GI50 (A498) | GI50 (EKVX) | GI50 (786-0) | GI50 (HCT-116) | GI50 (HOP-92) | GI50 (SNB-19) | GI50 (NCI-H522) | GI50 (UACC-257)
1 | CCOC(=O)C(C)NC(=O)C(C)NC(=O)C(C)NC(=O)C(C)NC(=O)C(C)NC(=O)C(C)NC(=O)C(C)NC(=O)OCc1ccccc1 (configuration not stated) (Cbz-AAAAAAA-OEt; configuration not given here) | > 100 µM (inactive) | > 100 µM (inactive) | > 100 µM (inactive) | > 100 µM (inactive) | > 100 µM (inactive) | > 100 µM (inactive) | > 100 µM (inactive) | > 100 µM (inactive) | > 100 µM (inactive) | > 100 µM (inactive) | > 100 µM (inactive) | 40.8 µM (inactive) | > 100 µM (inactive) | > 100 µM (inactive) | > 100 µM (inactive) | > 100 µM (inactive) | > 100 µM (inactive) | > 100 µM (inactive) | –
2 | CSc1nc2ccccc2c(=O)n1-c1cccc(C)c1 | > 100 µM (inactive) | 36 µM (inactive) | 23.6 µM (inactive) | > 100 µM (inactive) | 29.1 µM (inactive) | 38.6 µM (inactive) | 0.364 µM (active) | 39.2 µM (inactive) | 48.4 µM (inactive) | > 100 µM (inactive) | 94.2 µM (inactive) | 19.9 µM (inactive) | 73.6 µM (inactive) | > 100 µM (inactive) | 47.8 µM (inactive) | 26.5 µM (inactive) | > 100 µM (inactive) | 67.8 µM (inactive) | 31.1 µM (inactive)
3 | O=c1oc2cccnc2n1CCN1CCN(c2ccc(Oc3ccccc3)cc2)CC1 | > 100 µM (inactive) | 77.8 µM (inactive) | 79.6 µM (inactive) | > 100 µM (inactive) | 63.2 µM (inactive) | 7.82 µM (inactive) | 41.1 µM (inactive) | > 100 µM (inactive) | 32.5 µM (inactive) | > 100 µM (inactive) | > 100 µM (inactive) | 40.9 µM (inactive) | > 100 µM (inactive) | 20 µM (inactive) | 33.6 µM (inactive) | 57.3 µM (inactive) | > 100 µM (inactive) | 31.6 µM (inactive) | 21.9 µM (inactive)
4 | O=C(Nc1ccc(Br)cc1)c1c(-c2ccccc2)c2ccc(O)cc2oc1=O | > 10 µM (inactive) | > 10 µM (inactive) | > 10 µM (inactive) | > 10 µM (inactive) | > 10 µM (inactive) | > 10 µM (inactive) | > 10 µM (inactive) | > 10 µM (inactive) | > 10 µM (inactive) | > 10 µM (inactive) | – | > 10 µM (inactive) | > 10 µM (inactive) | > 10 µM (inactive) | – | > 10 µM (inactive) | – | > 10 µM (inactive) | > 10 µM (inactive)
5 | COc1ccc2nc(-c3ccccc3)c(=O)[nH]c2c1 | > 100 µM (inactive) | > 100 µM (inactive) | > 100 µM (inactive) | > 100 µM (inactive) | > 100 µM (inactive) | > 100 µM (inactive) | – | > 100 µM (inactive) | > 100 µM (inactive) | > 100 µM (inactive) | > 100 µM (inactive) | > 100 µM (inactive) | > 100 µM (inactive) | > 100 µM (inactive) | > 100 µM (inactive) | > 100 µM (inactive) | > 100 µM (inactive) | > 100 µM (inactive) | > 100 µM (inactive)
6 | O=C(O)CN1C(=O)c2ccc(NC(=O)C(=O)O)cc2S1(=O)=O | > 100 µM (inactive) | > 100 µM (inactive) | > 100 µM (inactive) | > 100 µM (inactive) | > 100 µM (inactive) | – | 89.7 µM (inactive) | > 100 µM (inactive) | > 100 µM (inactive) | > 100 µM (inactive) | > 100 µM (inactive) | > 100 µM (inactive) | > 100 µM (inactive) | > 100 µM (inactive) | > 100 µM (inactive) | > 100 µM (inactive) | > 100 µM (inactive) | > 100 µM (inactive) | > 100 µM (inactive)
7 | Cc1cc(NCCCCCCCCCC[n+]2c(C)cc(N)c3ccccc32)c2ccccc2n1 | 4.36 µM (inactive) | 0.0638 µM (active) | 1.04 µM (active) | 2.49 µM (inactive) | 1.01 µM (active) | – | 5.52 µM (inactive) | 0.419 µM (active) | 12.6 µM (inactive) | 1.47 µM (inactive) | 0.378 µM (active) | 2.08 µM (inactive) | – | 1.78 µM (inactive) | 0.209 µM (active) | 1.83 µM (inactive) | 0.427 µM (active) | 0.253 µM (active) | 0.216 µM (active)
8 | O=C(NC(CS)C(=O)O)c1cccc2c(=O)c3ccccc3[nH]c12 (configuration not stated) | > 100 µM (inactive) | – | > 100 µM (inactive) | > 100 µM (inactive) | > 100 µM (inactive) | 83.4 µM (inactive) | > 100 µM (inactive) | > 100 µM (inactive) | > 100 µM (inactive) | > 100 µM (inactive) | > 100 µM (inactive) | > 100 µM (inactive) | > 100 µM (inactive) | > 100 µM (inactive) | > 100 µM (inactive) | > 100 µM (inactive) | > 100 µM (inactive) | 47 µM (inactive) | –
